Test results: patent US20080139534A1, “Bisbenzamidines and bisbenzamidoximes for the treatment of human African trypanosomiasis” (XAVIER UNIVERSITY OF LOUISIANA, priority 2006, published 2008)
Marks after values point to notes of the source that are not given here.

Tests used:
[1] = tested on: T. b. brucei Lab 110 EATRO; experiment: In vitro trypanocidal activity, bloodforms in HMI-18 medium, Coulter counts; assay type: cell-based, Trypanosoma brucei brucei; conditions: 48 h exposure, bloodforms; read-out: Lab 100 EATRO IC50
[2] = tested on: T. b. brucei Lab 110 EATRO; experiment: In vivo efficacy in infected mice; parameters: species or system Trypanosoma brucei brucei
Experimental: Female Swiss-Webster mice (weight, 20 g) were infected (intraperitoneally) with 2.5×10^5 trypanosomes from rat blood, and the infection was allowed to develop for 24 h before drug treatment was begun. Groups of three mice each were injected (intraperitoneally) with each drug concentration. All of the experiments included a group of untreated controls. […] Parasitemia of animals dying of infection averaged 0.5-1.0×10^9/mL of blood. These infections are very predictable and daily counts were not done because of the labor involved. […] Animals were monitored weekly for parasites in tail vein blood smears. Mice were considered cured if they survived more than 30 days after the death of the last control with no parasites in tail vein blood smears. MSD (mean survival in days) was also recorded for each group. It is the average time of survival of the animals in the group, exclusive of cured animals.
Mice were infected with 250,000 parasites and dosing commenced 24 h. post infection. Mice were separated into groups of three and given single i.p doses for 3 days unless otherwise noted. Infected untreated controls were used for each experiment. Mice were considered cured if surviving more than 30 days beyond death of controls without parasites in tail vein blood smears. MSD, mean survival in days, exclusive of cured animals.

[3] = tested on: T. b. rhodesiense KETRI 243; experiment: In vitro trypanocidal activity, bloodforms in HMI-18 medium, Coulter counts; assay type: cell-based, Trypanosoma brucei rhodesiense; conditions: 48 h exposure
Experimental: The compounds were tested against trypanosome isolates grown as blood forms in HMI-18 medium containing 20% horse serum in 24 well microplates at 37° C. in 5% CO2. Wells were inoculated with 1×10^5 trypanosomes. […] One-half the volume was replaced daily. Cell counts were made daily with a Coulter Counter, Model Z1 (Beckman Coulter, Miami, Fla., USA). Cells were diluted with Isoton I buffer (Beckman Coulter) and the aperture was standardized at 5.14 μm. Background checks were performed daily on 1:10 dilutions of medium. Counts, normalization, and coincident counts were accounted for by the standardized Coulter analysis program. Occasionally, hemocytometer counts were performed as a check on the validity of the Coulter program. IC50 values were determined after 48 h from semi-log plots and the values are the result of duplicate determinations. Initially a broad concentration curve was used and then a close concentration curve from which IC50 values were determined. Assays were done in duplicate and each point was the average of the two. Control cells grew to 5×10^6/ml.
Coulter counts were made daily and IC50 values determined after 48 hours exposure.

poly(dA-dT) = experiment: Thermal denaturation study, DNA binding affinity (ΔTm); conditions: 1:5 compound to base pair ratio;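 also: shift in the midpoint temperature of the thermal melting curve of poly(dA-dT), each value the mean of two or more independent determinations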
Experimental: (§1) The binding affinity was measured by determining the change in the midpoint (Tm) of the thermal denaturation curves of calf thymus DNA as well as poly(dA-dT) at a 1:5 compound to base pair ratio.

calf thymus DNA = experiment: as above; conditions: 1:5 compound to base pair ratio;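 also: shift in midpoint melting temperature of calf thymus DNA thermal denaturation curves caused by compound binding, values averaged over at least two determinations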
Experimental: as §1

[4] = tested on: T. b. rhodesiense KETRI 1992; experiment: In vivo efficacy in infected mice, clinical isolate; parameters: species or system Trypanosoma brucei rhodesiense
Experimental: (§2) Female Swiss-Webster mice (weight, 20 g) were infected (intraperitoneally) with 2.5×10^5 trypanosomes from rat blood, and the infection was allowed to develop for 24 h before drug treatment was begun. Groups of three mice each were injected (intraperitoneally) with each drug concentration. All of the experiments included a group of untreated controls. […] Animals were monitored weekly for parasites in tail vein blood smears. Mice were considered cured if they survived more than 30 days after the death of the last control with no parasites in tail vein blood smears. MSD (mean survival in days) was also recorded for each group. It is the average time of survival of the animals in the group, exclusive of cured animals.
(§3) Mice were infected on day 1 with 2.5×10^5 trypanosomes and the infections allowed to progress 24 h. prior to dosing. Animals were dosed 1×/day i.p for 3 days. Cured animals survived >30 days beyond the death of untreated, infected controls. MSD=mean survival in days exclusive of cured animals. Dose as mg/kg/day.

[5] = tested on: T. b. rhodesiense KETRI 2002; experiment: as above; parameters: species or system Trypanosoma brucei rhodesiense
Experimental: as §2, §3

[6] = mice, 1, 2.5, 5, 10, 15, 25 mg/kg/day i.p. for 3 days (all doses failed to cure)
[7] = mice, 1, 2.5, 5, 10, 15, 25 mg/kg/day i.p. for 3 days (all doses)
[8] = mice, 1 mg/kg/day i.p. for 3 days
[9] = mice, 5 mg/kg/day i.p. for 3 days
[10] = mice, 10 mg/kg/day i.p. for 3 days
[11] = mice, 15 mg/kg/day i.p. for 3 days
[12] = mice, 25 mg/kg/day i.p. for 3 days
[13] = KETRI 1992, 1 mg/kg/day i.p. for 3 days
[14] = KETRI 1992, 5 mg/kg/day i.p. for 3 days
[15] = KETRI 1992, 10 mg/kg/day i.p. for 3 days
[16] = KETRI 2002, 1 mg/kg/day i.p. for 3 days
[17] = KETRI 2002, 5 mg/kg/day i.p. for 3 days
[18] = KETRI 2002, 10 mg/kg/day i.p. for 3 days
[19] = KETRI 2002, 25 mg/kg/day i.p. for 3 days
[20] = KETRI 1992, 25 mg/kg/day i.p. for 3 days
[21] = KETRI 2002, 15 mg/kg/day i.p. for 3 days

Compound | IC50 [1] | IC50 [3] | DNA Binding Δ Tm Poly (dA-dT) (poly(dA-dT)) | DNA Binding Δ Tm Calf thymus (calf thymus DNA) | MSD [2, 8] | MSD [2, 9] | MSD [2, 10] | further results
CCCCCCNC(=N)c1ccc(N2CCN(c3ccc(C(=N)NCCCCCC)cc3)CC2)cc1.Cl.Cl [compound 0128] | 13 nM | 23.9 nM | 10.1 °C | 10.7 °C | – | – | – | # Cured/#Treated (%) [2, 6]: 0/3^a; MSD [2, 7]: 5.3 to 10.6 days
Cl.Cl.N=C(NC1CCCCCC1)c1ccc(N2CCN(c3ccc(C(=N)NC4CCCCCC4)cc3)CC2)cc1 [compound 0129] | 18 nM | 22 nM | 18.7 °C | 15.6 °C | 7.5 days | 9 days | >30 days | # Cured/#Treated (%) [2, 8]: 0/3; MSD ([2]; mice, 7.5 mg/kg/day i.p. for 3 days): >30 days; MSD [2, 11]: >30 days
CCCCCCCCCNC(=N)c1ccc(N2CCN(c3ccc(C(=N)NCCCCCCCCC)cc3)CC2)cc1.Cl.Cl [compound 0132] | 100 nM | 210 nM | 2.7 °C | 1.3 °C | – | – | – | –
CCCCCCCNC(=N)c1ccc(N2CCN(c3ccc(C(=N)NCCCCCCC)cc3)CC2)cc1.Cl.Cl [compound 0133] | 100 nM | 57 nM | 8.5 °C | 8.7 °C | – | – | – | –
CC(C)CCNC(=N)c1ccc(N2CCN(c3ccc(C(=N)NCCC(C)C)cc3)CC2)cc1.Cl.Cl [compound 0135] | 72 nM | 61 nM | 21.8 °C | 15.3 °C | – | – | – | –
CCCCCCCCCCCCNC(=N)c1ccc(N2CCN(c3ccc(C(=N)NCCCCCCCCCCCC)cc3)CC2)cc1.Cl.Cl [compound 0136] | 660 nM | 125 nM | 0.0 °C | 0.6 °C | – | – | – | –
CCC(C)CNC(=N)c1ccc(N2CCN(c3ccc(C(=N)NCC(C)CC)cc3)CC2)cc1.Cl.Cl (centres unmarked) [compound 0138] | 13 nM | 39 nM | 16.0 °C | 12.9 °C | – | – | – | –
CCNC(=N)c1ccc(N2CCN(c3ccc(C(=N)NCC)cc3)CC2)cc1.Cl.Cl [compound 0140] | 13 nM | 33 nM | 18.6 °C | 15.3 °C | 5 days | 18 days | 17 days | # Cured/#Treated (%) [2, 8]: 0/3
N=C(N)c1ccc(OCc2ccc(COc3ccc(C(=N)N)cc3)cc2)cc1 [compound 0508] | 0.295 nM | 0.665 nM | 18.0 °C | 12.5 °C | – | – | – | # Cured/#Treated (%) [2, 6]: 0/3^a; MSD [2, 7]: 5 to 17.3 days
N=C(N)c1ccc(OCc2ccccc2COc2ccc(C(=N)N)cc2)cc1 [compound 0513] | 1.25 nM | 2.55 nM | −0.1 °C | −0.2 °C | – | – | – | # Cured/#Treated (%) [2, 6]: 0/3^a; MSD [2, 7]: 5 days
N=C(N)c1ccc(COc2ccccc2OCc2ccc(C(=N)N)cc2)cc1 [compound 0519] | 1.3 nM | 2.1 nM | −0.1 °C | 0.1 °C | – | – | – | # Cured/#Treated (%) [2, 6]: 0/3^a; MSD [2, 7]: 5 days
N=C(N)c1ccc(NC(=O)CCCCCCC(=O)Nc2ccc(C(=N)N)cc2)cc1 [compound 0705] | 2.8 nM | 1.45 nM | – | – | 10 days | >30 days | >30 days | MSD [2, 12]: >30 days; #Cured/Total [4, 13]: 0/3; MSD [4, 13]: 15.3 days; #Cured/Total [4, 14]: 0/3; MSD [4, 14]: 22.6 days; #Cured/Total [4, 15]: 0/3; MSD [4, 15]: 29.6 days; MSD [5, 16]: >30 days; MSD [5, 17]: >30 days; MSD [5, 18]: >30 days; MSD [5, 19]: >30 days
N=C(N)c1ccc(NC(=O)CCCCCC(=O)Nc2ccc(C(=N)N)cc2)cc1 [compound 0706] | 1.62 nM | 2.05 nM | – | – | >30 days | >30 days | >30 days | MSD [2, 11]: >30 days; #Cured/Total [4, 13]: 0/3; MSD [4, 13]: 14 days; #Cured/Total [4, 14]: 0/3; MSD [4, 14]: 18.3 days; #Cured/Total [4, 15]: 0/3; MSD [4, 15]: 18.6 days; #Cured/Total [4, 20]: 0/3; MSD [4, 20]: 19.3 days; MSD [5, 16]: >30 days; MSD [5, 17]: >30 days; MSD [5, 18]: >30 days; MSD [5, 21]: >30 days
N=C(N)c1ccc(NC(=O)CCCCCCCCC(=O)Nc2ccc(C(=N)N)cc2)cc1 [compound 0709] | 2 nM | 4.1 nM | – | – | 12 days | >30 days | >30 days | MSD [2, 12]: >30 days; #Cured/Total [4, 13]: 0/3; MSD [4, 13]: 12.6 days; #Cured/Total [4, 14]: 0/3; MSD [4, 14]: 13.7 days; #Cured/Total [4, 15]: 0/3; MSD [4, 15]: 15.7 days; #Cured/Total [4, 20]: 0/3; MSD [4, 20]: 26.6 days; #Cured/Total [5, 16]: 0/3; MSD [5, 16]: 18 days; MSD [5, 17]: 33 days; MSD [5, 18]: >30 days; MSD [5, 21]: >30 days; MSD [5, 19]: >30 days
